What is called IC50 is the concentration that gives 50% inhibition.

SMILES strings stand for the structures. Like-named read-outs stand apart in the source and are kept apart here.

Experiment [1] concerns Huh7. The experiment can be described thus: NCI-60 sulforhodamine B (SRB) cytotoxicity assay, Huh7. Format: cell-based, human. The note with it: Homo sapiens, read-out: IC50 Huh7. Here is the method: (§1) The bioactivities of the synthesized chalcones were assessed on human liver cancer cell lines and on DPSCs with NCI-SRB assay in vitro. DPSCs used to asses the bioactivity of chalcones on untransformed control cells with the potential of hepatic lineage. […] We also included 5-Fluorouracil which is used in clinics for gastrointestinal cancers and Sorafenib. All results were normalized to DMSO negative control measurements. The experiment was performed in triplicate.
(§2) Well differentiated human primary liver cancer cell lines Huh7, HepG2 and Hep3B, and poorly differentiated Mahlavu, FOCUS and SNU475 HCC cells were cultured in Dulbecco’s Modified Eagle’s Standard (DMEM) medium supplemented with 10% Fetal Bovine Serum (FBS), 100 units/mL penicillin and 100 µg/mL streptomycin (Gibco, Invitrogen, Carlsbad, CA, USA). 0.1 mM nonessential amino acids (NEAA) which are specific to HCC cell lines also added to culture media. Cells were cultured in a 5% CO2 incubator at 37^∘C
(§3) Primary liver cancer cells Huh7, HepG2, Hep3B, Mahlavu, FOCUS, Snu475 along with hepatic progenitor Dental pulp stem cells were seeded into 96-well plates (1,000–3,000 HCC cell/well and 10,000 cells DPSC/well ) for 24 h. The cells were then treated with increasing concentrations of the chalcones ( 2.5-40μM ). DMSO (AppliChem Biochemica, Darmstadt, Germany) was used as negative control. The growth has stopped at the end of 72 h by fixing cold with 10% (v/v) trichloroacetic acid (Merck, Schuchardt, Germany). Cells were then stained with 0.4% (m/v) of sulforhodamine (Sigma-Aldrich, St. Louis, USA) in 1% acetic acid solution. The absorbency values were acquired at 515 nm. All experiments were done in triplicate.

Experiment [2] deals with HepG2. The experiment can be described thus: NCI-60 sulforhodamine B (SRB) cytotoxicity assay, HepG2. It is filed as cell-based, human. The note with it: Homo sapiens, HepG2; SRB, 72 h, 2.5–40 μM, triplicate; read-out: IC50 HepG2. Here is the method: as §1, §2
as §3, with “The absorbency values were acquired at 515 nm.” left out
Background: In SRB staining, fixed cells bind dye roughly in proportion to their protein.

For experiment [3], the system named is FOCUS. The experiment is described as follows: NCI-60 sulforhodamine B (SRB) cytotoxicity assay, FOCUS. Format: cell-based, human. The note with it: Homo sapiens; SRB, 72 h, 2.5–40 μM, triplicate; read-out: IC50 FOCUS. Here is the method: as §1, §2
as §3, with “The absorbency values were acquired at 515 nm.” left out

Experiment [4] deals with SNU475. The experiment can be described thus: NCI-60 sulforhodamine B (SRB) cytotoxicity assay, SNU475. It is filed as cell-based, human. Conditions: Homo sapiens, SNU-475; SRB, 72 h, 2.5–40 μM, triplicate; read-out: IC50 SNU475. Here is the method: as §1, §2
as §3, with “The absorbency values were acquired at 515 nm.” left out

Experiment [5] concerns dental pulp stem cells (DPSC). The experiment can be described thus: NCI-60 sulforhodamine B (SRB) cytotoxicity assay, dental pulp stem cells. Format: cell-based, human. The note with it: Homo sapiens; SRB, 72 h, 2.5–40 μM, triplicate; untransformed control cells; read-out: IC50 DPSC. Here is the method:
as §1
Dental pulp stem cells (DPSCs) were isolated from anonymised unidentified healthy intact wisdom tooth. DPSCs were isolated within few hours upon wisdom teeth surgery from patients above 18 years old. All were informed about the procedures, and their consents were obtained. Teeth were broken carefully in order to reach the dental pulp area. […] Then, the cells were seeded onto flasks in 10ml DMEM-F12 media (Lonza) supplemented with 1% penicillin/streptomycin solution (Hyclone) and 15% FBS (Fetal Bovine Serum,Hyclone, Logan, UT, USA) and cultured in a 5% CO2 incubator at 37^∘C .
as §3, with “The absorbency values were acquired at 515 nm.” left out

Experiment [6] deals with Huh7. The experiment is described as follows: Real-time cell electronic sensing (RT-CES) growth analysis, Huh7. Format: cell-based. The note with it: Homo sapiens, Huh-7. Here is the method: (§4) The selected 3 compounds were further analyzed with real-time cell electronic sensing (RT-CES) system to assess the real-time growth behavior of the cells treated with the compounds. Huh7 and Mahlavu liver cancer cells were treated with the selected chalcones and monitored with RT-CES. Results of the compounds were normalized to data of negative control DMSO.
(§5) Figure 2 Real-time cell growth analysis. Human liver cancer cells Huh7 (left panel) and Mahlavu (right panel) were treated with the selected compounds. Cell index measurements were obtained by RT-CES software. DMSO was used as negative control. (A) The growth inhibition values of the compounds were obtained by the normalization with DMSO. Experiments were performed in triplicate. (B) IC50 values calculated from RT-CES experiment data. TEXT PRINTED IN THE PICTURE: (B) 1: Huh7 24h: 3.7; Huh7 72h: 5.2; Mahlavu 24h: 1.2; Mahlavu 72h: 2.3 | (B) 9: Huh7 24h: 16.1; Huh7 72h: 11.5; Mahlavu 24h: 4.9; Mahlavu 72h: 6.8 | (B) 11: Huh7 24h: 8.7; Huh7 72h: 8.8; Mahlavu 24h: 4.9; Mahlavu 72h: 6.8 DOUBTS OF THE COPYIST ABOUT THIS PICTURE: Panel B table: the picture prints no measure and no unit for the values
(§6) Huh7 and Mahlavu cells were inoculated into the e-plate (1000–2000 cells/well). The attachment, spreading, and proliferation of the cells were monitored every 30 minutes using the Xcelligence® Real-Time Cell Analysis system (ACEA Biosciences Inc.) in a cell culture incubator. […] When cells reach to an cell index (CI) impedance values about 1.5 usually in 24 hours cells were treated with the chalcones 1, 9 and 11. DMSO was used as a negative control. Each experiment was repeated three times. The CI value was noted every 10 minutes for the first 24 hours and then every 30 minutes upon chalcone treatments. The cell inhibition rate calculated as follows (%)=[1-(CItreatedcells/CIDMSO)]×100 .

Experiment [7] relates to Mahlavu. The experiment is described as follows: Real-time cell electronic sensing (RT-CES) growth analysis, Mahlavu. Conditions: Homo sapiens. It is filed as cell-based. Here is the method:
as §4, §5, §6

[8] abbreviates: Huh-7, SRB, 72 h, 2.5–40 μM, triplicate.
Where [9] appears, read: Huh7, 24h, read-out: IC50 values calculated from RT-CES experiment data, Huh7 24h.
[10] abbreviates: Huh7, 72h, read-out: IC50 values calculated from RT-CES experiment data, Huh7 72h.
The mark [11] stands for this setting: 24h, read-out: IC50 values calculated from RT-CES experiment data, Mahlavu 24h.
Where [12] appears, read: 72h, read-out: IC50 values calculated from RT-CES experiment data, Mahlavu 72h.

For `COc1ccc(C(=O)/C=C/c2cccc([N+](=O)[O-])c2)cc1` [compound 1], the IC50 was less than 2.5 µM in experiment [1] (setting [8]); 4.2 µM in experiment [2]; 4.9 µM in experiment [3]; 3 µM in experiment [4]; greater than 40 µM in experiment [5]; 3.7 µM in experiment [6] (setting [9]). The IC50 was 5.2 µM in experiment [6] (setting [10]), 1.2 µM in experiment [7] (setting [11]) and 2.3 µM in experiment [7] (setting [12]).

`O=C(/C=C/c1ccccc1)c1ccccc1` [compound 9]: the half-inhibitory concentration (IC50) in experiment [1] (Huh-7, 72 h) is 5.3 µM; in experiment [2], 7.3 µM; in experiment [3] it was 3.3 µM; in experiment [4], 5 µM; in experiment [5] it was 25.7 µM; in experiment [6] (setting [9]), 16.1 µM. Besides, the IC50 in experiment [6] (setting [10]) is 11.5 µM; in experiment [7] (setting [11]), 4.9 µM; in experiment [7] (setting [12]), 6.8 µM.

As for `O=C(/C=C/c1ccc(Cl)cc1)c1ccccc1` [compound 11], the IC50 was 4.3 µM in experiment [1] (setting [8]); 6.5 µM in experiment [2]; 3.1 µM in experiment [3]; 9 µM in experiment [4]; 19.1 µM in experiment [5]; 8.7 µM in experiment [6] (setting [9]). The IC50 in experiment [6] (setting [10]) was 8.8 µM; in experiment [7] (setting [11]), 4.9 µM; in experiment [7] (setting [12]), 6.8 µM.

(Values after publication PMC7367369, “A small library of chalcones induce liver cancer cell death through Akt phosphorylation inhibition” (Scientific Reports, 2020).)
